Reference: patent publication US5569471A, “Medicine for the treatment of tumor” (priority 1993, dated 1996)
“Also recorded” adds a separate entry of the source.

Tests used:
T-ALL cells [1] = assay: Test for confirming the effect of enhancing antitumor activity by successive dosage; format: cell-based, human; conditions: FIG. 3
Method: The tumor cell killing effect was investigated by successively administering 4-piperidino-piperidine and an antitumor drug to T-ALL cells.
First, T-ALL cells were cultured in a plurality of culture media containing 4-piperidino-piperidine at different concentrations (2.5, 12.5, 25 and 50 μg/ml) for 6 days. […] The results are shown in FIG. 3, which employes a relative expression where the number of lethal cells in the standard cell groups was taken as 100% (shown by a horizontal perforated line). The numbers 1, 2, 3 and 4 given for each drug indicate that the concentration of 4-piperidino-piperidine used for the culture is 2.5, 12.5, 25 and 50 μg/ml, respectively.

T-ALL cells [2] = assay: Test for confirming the effect of enhancing antitumor activity by a simultaneous dosage, T-ALL cells; format: cell-based, human; conditions: 4-piperidino-piperidine 2.5 μg/ml simultaneously, FIG. 4
Method: (§1) The numbers of the lethal cells were counted in cases where 4-piperidino-piperidine (2.5 μg/ml) and each of the ten kinds of the antitumor drugs listed in Table 3 were simultaneously dosed (in small amounts and large amounts for each drug), and where the ten kinds of the antitumor drugs were independently and singly dosed (in small amounts and large amounts for each drug).
(§2) The procedure of Example 9 was repeated by using human myeloblastic leukemia cells (K-562) in place of the T-ALL cells.

[3] = tested on: human myeloblastic leukemia cells (K-562); assay: Test for confirming the effect of enhancing antitumor activity by a simultaneous dosage, K-562 cells; format: cell-based; conditions: 4-piperidino-piperidine 2.5 μg/ml simultaneously; drug doses of Table 3; FIG. 5
Method: as §1, §2

[4] = tested on: cisplatin-resistant human myeloid leukemia cells (K-562); assay: Test for confirming the resistance dissolving effect, cisplatin-resistant cells; format: cell-based; conditions: FIG. 2; for cell killing effect, single dose: 4-piperidino-piperidine 2.5 μg/ml alone, cisplatin 1 alone, vs control
From the text: As drug-fast cells, two kinds of human myeloid leukemia cells (K-562) which had acquired drug resistance against adriamycin (ADR) and cisplatin were used (see Kaoru MIURA, et al., "NK and LAK cell sensitivity and HLA expression" 51st Conference of Japan Cancer Association, page 252, 1992; and Nobutaka IMAIZUMI, Yoichiro KUSUKI, Chie KAWACHI, et al., "Establishing adriamycin-resistant strains and review on the mechanism of resistance", Oncologoa, 21, 89-94, 1988). In the test, adriamycin (ADR), cisplatin, and 4-piperidino-piperidine were dosed singly or in combination against the two kinds of the drug-fast cells, and the number of the lethal cells were counted.

[5] = tested on: T-cells derived from human acute leukemia (RPMI-8402, T-ALL cells); assay: Test for confirming the inhibitory effect on tumor cell propagation (6-day culture, counting of lethal and propagated cells); format: cell-based; conditions: 2.5, 12.5, 25, 50, 80 and 100 μg/ml, FIG. 1
Method: To samples of T-cells derived from human acute leukemia (RPMI-8402, T-ALL cells, see Minowada, J. and Moore, G. E., In Comparative Leukemia Research, Eds. Ito, Y. and Dutcher, R. M., Univ. Tokyo Press, Tokyo, pp. 251-261, 1975), 4-piperidino-piperidine (4-PP) in various concentrations was added (0, 2.5, 12.5, 25, 50, 80 and 100 μg/ml). After a 6-day culture, lethal cells and propagated cells were counted.

Toxicity test = conditions: in vivo; species and route not given
Method: The LD50 value of 4-piperidino-piperidine is about 200 to 300 mg/kg. Therefore, ordinary dose will not cause any risk.

[6] = both drug concentrations (DNR 0.01/0.05, ACR 0.05/0.1, 5-FU 5/10 μg/ml)
[7] = 4-piperidino-piperidine precedently dosed, all concentration groups (2.5, 12.5, 25 and 50 μg/ml), ACR 0.05, MTX 0.01 μg/ml
[8] = 4-piperidino-piperidine precedently dosed at 12.5, 25 and 50 μg/ml, DNR 0.05, 5-FU 10 μg/ml
[9] = in the concentration of 0.05 μg/ml

## CCc1c2c(nc3ccc(OC(=O)N4CCC(N5CCCCC5)CC4)cc13)-c1cc3c(c(=O)n1C2)COC(=O)[C@]3(O)CC [CPT-11, 7-Ethyl-10-piperidino-piperidinocarboxycamptothecin]
T-ALL cells [1]; 4-piperidino-piperidine precedently dosed at 25 and 50 μg/ml, CPT-11 10 μg/ml
  enhancement of antitumor drug effect (lethal cells relative to standard cells): enhanced

## CCC1(O)CC(OC2CC(N(C)C)C(OC3CC(O)C(OC4CCC(=O)C(C)O4)C(C)O3)C(C)O2)c2c(cc3c(c2O)C(=O)c2c(O)cccc2C3=O)C1C(=O)OC (stereo not shown) [ACR]
T-ALL cells [2]; [6]
  enhancement of antitumor activity by combined use with 4-piperidino-piperidine: enhanced
T-ALL cells [1]; [7]
  enhancement of antitumor drug effect (lethal cells relative to standard cells): enhanced effects

## COc1cc([C@@H]2c3cc4c(cc3[C@@H](O[C@@H]3O[C@@H]5CO[C@@H](C)O[C@H]5[C@H](O)[C@H]3O)[C@H]3COC(=O)[C@H]23)OCO4)cc(OC)c1O [etoposide]
[3]
  enhancement of antitumor activity by combined use with 4-piperidino-piperidine: enhanced

## O=c1[nH]cc(F)c(=O)[nH]1 [5-FU, 5-Fluorouracil]
T-ALL cells [2]; [6]
  enhancement of antitumor activity by combined use with 4-piperidino-piperidine: enhanced
T-ALL cells [1]; [8]
  enhancement of antitumor drug effect (lethal cells relative to standard cells): enhanced effects

## O=C1c2c(O)ccc(O)c2C(=O)c2c(NCCNCCO)ccc(NCCNCCO)c21 [Mitoxantrone]
[3]
  enhancement of antitumor activity by combined use with 4-piperidino-piperidine: enhanced
T-ALL cells [1]; 4-piperidino-piperidine precedently dosed at 2.5 and 50 μg/ml, mitoxantrone 0.05 μg/ml
  enhancement of antitumor drug effect (lethal cells relative to standard cells): enhanced effects

## COc1cccc2c1C(=O)c1c(O)c3c(c(O)c1C2=O)C[C@@](O)(C(=O)CO)C[C@@H]3O[C@H]1C[C@H](N)[C@H](O)[C@H](C)O1 [ADR]
T-ALL cells [2]; [9]
  enhancement of antitumor activity by combined use with 4-piperidino-piperidine: enhanced
[3]
  enhancement of antitumor activity by combined use with 4-piperidino-piperidine: enhanced

## N.N.[Cl][Pt][Cl] [cisplatin]
[4]
  cell killing effect, single dose: almost the same cell killing effect as that of the control group
[3]
  enhancement of antitumor activity by combined use with 4-piperidino-piperidine: enhanced

## CC[C@]1(O)C[C@H]2CN(CCc3c([nH]c4ccccc34)[C@@](C(=O)OC)(c3cc4c(cc3OC)N(C=O)[C@H]3[C@@](O)(C(=O)OC)[C@H](OC(C)=O)[C@]5(CC)C=CCN6CC[C@]43[C@@H]65)C2)C1 [VCR]
[3]
  enhancement of antitumor activity by combined use with 4-piperidino-piperidine: enhanced

## CN(Cc1cnc2nc(N)nc(N)c2n1)c1ccc(C(=O)N[C@@H](CCC(=O)O)C(=O)O)cc1 [MTX]
[3]
  enhancement of antitumor activity by combined use with 4-piperidino-piperidine: enhanced
T-ALL cells [1]; [7]
  enhancement of antitumor drug effect (lethal cells relative to standard cells): enhanced effects

## COc1cccc2c1C(=O)c1c(O)c3c(c(O)c1C2=O)C[C@@](O)(C(C)=O)C[C@@H]3O[C@H]1C[C@H](N)[C@H](O)[C@H](C)O1 [DNR]
T-ALL cells [2]; [6]
  enhancement of antitumor activity by combined use with 4-piperidino-piperidine: enhanced
[3]
  enhancement of antitumor activity by combined use with 4-piperidino-piperidine: enhanced
T-ALL cells [1]; [8]
  enhancement of antitumor drug effect (lethal cells relative to standard cells): enhanced effects

## C1CCN(C2CCNCC2)CC1 [4-piperidino-piperidine]
[4]
  cell killing effect, single dose: almost the same cell killing effect as that of the control group
[4]; cisplatin and 4-piperidino-piperidine simultaneously dosed, compared with each dosed singly
  cell killing effect, simultaneous dose (resistance dissolving): significantly enhanced
[5]
  number of propagated cells: decreased in a dose-dependent manner
[5]; vs control
  number of lethal cells (tumor cell killing effect): does not have tumor cell killing effect per se; also recorded: not significantly different from the count of the control group
Toxicity test
  LD50: 200 to 300 mg/kg

## CC[C@]1(O)C[C@@H]2CN(CCc3c([nH]c4ccccc34)[C@@](C(=O)OC)(c3cc4c(cc3OC)N(C)[C@H]3[C@@](O)(C(N)=O)[C@H](O)[C@]5(CC)C=CCN6CC[C@]43[C@@H]65)C2)C1 [VDS]
T-ALL cells [2]; [9]
  enhancement of antitumor activity by combined use with 4-piperidino-piperidine: enhanced
[3]
  enhancement of antitumor activity by combined use with 4-piperidino-piperidine: enhanced
